The values below come from patent publication US8236964B2, “Thiazolidine derivatives as orexin receptor antagonists” (Actelion Pharmaceuticals Ltd., priority 2007, dated 2012).

One assay has as its target T1, human orexin-2 receptor (Homo sapiens, UniProt O43614).
T1 construct: expressed in transfected cells; host or cells: CHO cells (G418 selection)
T1 sequence (O43614 1-444): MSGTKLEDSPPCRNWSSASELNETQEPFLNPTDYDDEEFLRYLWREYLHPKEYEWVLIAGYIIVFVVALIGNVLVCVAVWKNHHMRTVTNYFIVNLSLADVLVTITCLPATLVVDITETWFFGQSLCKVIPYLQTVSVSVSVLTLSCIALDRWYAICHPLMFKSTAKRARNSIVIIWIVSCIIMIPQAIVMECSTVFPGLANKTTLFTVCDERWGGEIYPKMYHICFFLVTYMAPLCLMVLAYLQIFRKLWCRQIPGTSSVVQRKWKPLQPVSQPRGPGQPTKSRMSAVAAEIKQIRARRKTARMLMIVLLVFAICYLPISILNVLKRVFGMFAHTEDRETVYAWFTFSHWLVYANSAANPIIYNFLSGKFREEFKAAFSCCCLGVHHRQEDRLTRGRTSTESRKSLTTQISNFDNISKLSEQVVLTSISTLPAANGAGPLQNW
Description: Intracellular calcium measurements (FLIPR), orexin receptor antagonistic activity, OX2. It counts as cell-based. The settings on record: CHO cells expressing the human orexin-2 receptor; 10 nM orexin-A as agonist. The procedure:
(§1) The orexin receptor antagonistic activity of the compounds of formula (I) is determined in accordance with the following experimental method.
(§2) Intracellular Calcium Measurements:
(§3) Chinese hamster ovary (CHO) cells expressing the human orexin-1 receptor and the human orexin-2 receptor, respectively, are grown in culture medium (Ham F-12 with L-Glutamine) containing 300 μg/ml G418, 100 U/ml penicillin, 100 μg/ml streptomycin and 10% inactivated fetal calf serum (FCS). The cells are seeded at 80,000 cells/well into 96-well black clear bottom sterile plates (Costar) which have been precoated with 1% gelatine in Hanks' Balanced Salt Solution (HBSS). All reagents are from Gibco BRL. The seeded plates are incubated overnight at 37° C. in 5% CO2.
(§4) Human orexin-A as an agonist is prepared as 1 mM stock solution in methanol:water (1:1), diluted in HBSS containing 0.1% bovine serum albumin (BSA) and 2 mM HEPES for use in the assay at a final concentration of 10 nM.
(§5) Antagonists are prepared as 10 mM stock solution in DMSO, then diluted in 96-well plates, first in DMSO, then in HBSS containing 0.1% bovine serum albumin (BSA) and 2 mM HEPES.
(§6) On the day of the assay, 100 μl of loading medium (HBSS containing 1% FCS, 2 mM HEPES, 5 mM probenecid (Sigma) and 3 μM of the fluorescent calcium indicator fluo-3 AM (1 mM stock solution in DMSO with 10% pluronic acid) (Molecular Probes) is added to each well.
(§7) The 96-well plates are incubated for 60 min at 37° C. in 5% CO2. The loading solution is then aspirated and cells are washed 3 times with 200 μl HBSS containing 2.5 mM probenecid, 0.1% BSA, 2 mM HEPES. 100 μl of that same buffer is left in each well.
Within the Fluorescent Imaging Plate Reader (FLIPR, Molecular Devices), antagonists are added to the plate in a volume of 50 μl, incubated for 20 min and finally 100 μl of agonist is added. Fluorescence is measured for each well at 1 second intervals, and the height of each fluorescence peak is compared to the height of the fluorescence peak induced by 10 nM orexin-A with buffer in place of antagonist. For each antagonist, IC50 value (the concentration of compound needed to inhibit 50% of the agonistic response) is determined. Antagonistic activities of compounds are in the nanomolar range below 1000 nM with respect to the OX1 and/or the OX2 receptor.

The next assay concerns the target T2, human orexin-1 receptor (Homo sapiens, UniProt O43613).
T2 construct: expressed in transfected cells; host or cells: CHO cells (G418 selection)
T2 sequence (O43613 1-425): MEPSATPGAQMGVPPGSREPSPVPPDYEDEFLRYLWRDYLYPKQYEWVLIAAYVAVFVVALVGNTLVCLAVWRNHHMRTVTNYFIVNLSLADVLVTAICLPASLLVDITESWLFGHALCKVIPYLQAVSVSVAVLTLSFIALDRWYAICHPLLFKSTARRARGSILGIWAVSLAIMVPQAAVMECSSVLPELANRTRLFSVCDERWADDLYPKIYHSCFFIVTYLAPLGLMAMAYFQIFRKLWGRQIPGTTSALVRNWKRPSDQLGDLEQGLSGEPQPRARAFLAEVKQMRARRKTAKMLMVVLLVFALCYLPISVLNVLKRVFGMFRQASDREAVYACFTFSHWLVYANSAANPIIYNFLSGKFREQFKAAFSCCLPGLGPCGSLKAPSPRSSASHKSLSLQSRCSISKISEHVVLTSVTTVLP
Description: Intracellular calcium measurements (FLIPR), orexin receptor antagonistic activity, OX1. The assay is classed as cell-based. The following applies: CHO cells expressing the human orexin-1 receptor; 10 nM orexin-A as agonist. The procedure: as §1, §2, §3, §4, §5, §6, §7
Within the Fluorescent Imaging Plate Reader (FLIPR, Molecular Devices), antagonists are added to the plate in a volume of 50 μl, incubated for 20 min and finally 100 μl of agonist is added. Fluorescence is measured for each well at 1 second intervals, and the height of each fluorescence peak is compared to the height of the fluorescence peak induced by 10 nM orexin-A with buffer in place of antagonist. For each antagonist, IC50 value (the concentration of compound needed to inhibit 50% of the agonistic response) is determined.

`Cc1nc(C(=O)N2CSC[C@H]2CNC(=O)c2nn(C)c3ccccc23)c(-c2ccc(F)cc2)s1` [Example 4, 1-Methyl-1H-indazole-3-carboxylic acid {(R)-3-[5-(4-fluoro-phenyl)-2-methyl-thiazole-4-carbonyl]-thiazolidin-4-ylmethyl}-amide]: the IC50 (usually the concentration at which inhibition is half-maximal) on human orexin-2 receptor was determined as 8 nM.

Turning to `COc1cccc(-c2sc(C)nc2C(=O)N2CSC[C@H]2CNC(=O)c2cccc3occc23)c1` [Example 11, Benzofuran-4-carboxylic acid {(R)-3-[5-(3-methoxy-phenyl)-2-methyl-thiazole-4-carbonyl]-thiazolidin-4-ylmethyl}-amide], the IC50 on human orexin-2 receptor and at human orexin-1 receptor was 1 nM throughout.

For the compound `Cc1nc(C(=O)N2CSC[C@H]2CNC(=O)c2c(C)nc3sccn23)c(-c2cccc(F)c2)s1` [Example 31, 6-Methyl-imidazo[2,1-b]thiazole-5-carboxylic acid {(R)-3-[5-(3-fluoro-phenyl)-2-methyl-thiazole-4-carbonyl]-thiazolidin-4-ylmethyl}-amide], the results for the 50% inhibitory concentration (IC50) on human orexin-2 receptor and on human orexin-1 receptor were 7 nM and 6 nM, respectively.

Consider `Cc1nc(C(=O)N2CSC[C@H]2CNC(=O)c2c(C)nc3sccn23)c(-c2cccc(C(F)(F)F)c2)o1` [Example 38, 6-Methyl-imidazo[2,1-b]thiazole-5-carboxylic acid {(R)-3-[2-methyl-5-(3-trifluoromethyl-phenyl)-oxazole-4-carbonyl]-thiazolidin-4-ylmethyl}-amide], for which the IC50 is 80 nM on human orexin-2 receptor and 59 nM at human orexin-1 receptor.

In the case of `Cc1ccc(-c2nc(C)sc2C(=O)N2CSC[C@H]2CNC(=O)c2c(C)nc3sccn23)cc1` [Example 41, 6-Methyl-imidazo[2,1-b]thiazole-5-carboxylic acid [(R)-3-(2-methyl-4-p-tolyl-thiazole-5-carbonyl)-thiazolidin-4-ylmethyl]-amide], the IC50 at human orexin-2 receptor came to 11 nM; on human orexin-1 receptor it was 7 nM.

As to `O=C(NC[C@@H]1CSCN1C(=O)c1ccccc1-c1ccccc1)c1cccc2occc12` [Example 79, Benzofuran-4-carboxylic acid [(R)-3-(biphenyl-2-carbonyl)-thiazolidin-4-ylmethyl]-amide], the IC50 was 9 nM on human orexin-2 receptor and 23 nM at human orexin-1 receptor.

Take `Cn1nc(C(=O)NC[C@@H]2CSCN2C(=O)c2ccccc2-c2ccccc2)c2ccccc21` [Example 83, 1-Methyl-1H-indazole-3-carboxylic acid [(R)-3-(biphenyl-2-carbonyl)-thiazolidin-4-ylmethyl]-amide]: the IC50 at human orexin-2 receptor and at human orexin-1 receptor was 6 nM in each case.

Regarding `Cc1nc(C(=O)N2CSC[C@H]2CNC(=O)c2cc3ccccc3s2)c(-c2ccc(F)cc2)s1` [Example 91, Benzo[b]thiophene-2-carboxylic acid {(R)-3-[5-(4-fluoro-phenyl)-2-methyl-thiazole-4-carbonyl]-thiazolidin-4-ylmethyl}-amide], the IC50 on human orexin-2 receptor is 22 nM; at human orexin-1 receptor, 5950 nM.

Regarding `Cc1nc(C(=O)N2CSC[C@H]2CNC(=O)c2c(C)nc3ccccn23)c(-c2ccc(F)cc2)s1` [Example 110, 2-Methyl-imidazo[1,2-a]pyridine-3-carboxylic acid {(R)-3-[5-(4-fluoro-phenyl)-2-methyl-thiazole-4-carbonyl]-thiazolidin-4-ylmethyl}-amide], the IC50 stood at 804 nM on human orexin-2 receptor and 99 nM on human orexin-1 receptor.

Consider `Cc1nc(C(=O)N2CSC[C@H]2CNC(=O)c2cccc3c2NCCO3)c(-c2ccc(F)cc2)s1` [Example 112, 3,4-Dihydro-2H-benzo[1,4]oxazine-5-carboxylic acid {(R)-3-[5-(4-fluoro-phenyl)-2-methyl-thiazole-4-carbonyl]-thiazolidin-4-ylmethyl}-amide], for which the IC50 at human orexin-2 receptor worked out at 17 nM; on human orexin-1 receptor, 6 nM.

Regarding `Cc1cccc(-c2sc(C)nc2C(=O)N2CSC[C@H]2CNC(=O)c2cccc3ncoc23)c1` [Example 119, Benzooxazole-7-carboxylic acid [(R)-3-(2-methyl-5-m-tolyl-thiazole-4-carbonyl)-thiazolidin-4-ylmethyl]-amide], the half-inhibitory concentration (IC50) on human orexin-2 receptor came out at 3 nM; on human orexin-1 receptor it was 2 nM.

On to `Cc1cccc(-c2sc(C)nc2C(=O)N2CSC[C@H]2CNC(=O)c2ccc(F)c3occc23)c1` [Example 127, 7-Fluoro-benzofuran-4-carboxylic acid [(R)-3-(2-methyl-5-m-tolyl-thiazole-4-carbonyl)-thiazolidin-4-ylmethyl]-amide], for which the figures for the IC50 on human orexin-2 receptor and at human orexin-1 receptor were 1 nM and 2 nM, respectively.

As for `Cc1nc(C(=O)N2CSC[C@H]2CNC(=O)c2c(C)cn3ccsc23)c(-c2ccc(F)cc2)s1` [Example 132, 6-Methyl-pyrrolo[2,1-b]thiazole-7-carboxylic acid {(R)-3-[5-(4-fluoro-phenyl)-2-methyl-thiazole-4-carbonyl]-thiazolidin-4-ylmethyl}-amide], the IC50 on human orexin-2 receptor came to 6 nM; on human orexin-1 receptor, 5 nM.

As to `COC1Cc2c(C(=O)NC[C@@H]3CSCN3C(=O)c3nc(C)sc3-c3cccc(C)c3)ccc(Cl)c2O1` (stereo partly drawn) [Example 133, 7-Chloro-2-methoxy-2,3-dihydro-benzofuran-4-carboxylic acid [(R)-3-(2-methyl-5-m-tolyl-thiazole-4-carbonyl)-thiazolidin-4-ylmethyl]-amide], the IC50 on human orexin-2 receptor worked out at 3 nM; on human orexin-1 receptor, 8 nM.

Regarding `Cc1cccc(-c2sc(C)nc2C(=O)N2CSC[C@H]2CNC(=O)c2ccc(C(F)(F)F)c3occc23)c1` [Example 141, 7-Trifluoromethyl-benzofuran-4-carboxylic acid [(R)-3-(2-methyl-5-m-tolyl-thiazole-4-carbonyl)-thiazolidin-4-ylmethyl]-amide], the figures for the concentration for half-maximal inhibition (IC50) on human orexin-2 receptor and at human orexin-1 receptor were 4 nM and 10 nM, respectively.

For the compound `Cc1cccc(-c2sc(C)nc2C(=O)N2CSC[C@H]2CNC(=O)c2cccc3oc(CO)cc23)c1` [Example 147, 2-Hydroxymethyl-benzofuran-4-carboxylic acid [(R)-3-(2-methyl-5-m-tolyl-thiazole-4-carbonyl)-thiazolidin-4-ylmethyl]-amide], the values for the IC50 on human orexin-2 receptor and at human orexin-1 receptor were 10 nM and 9 nM, respectively.
